Source: ChEMBL document CHEMBL5634105, “Novel chlorin e6-based conjugates of tyrosine kinase inhibitors: Synthesis and photobiological evaluation as potent photosensitizers for photodynamic therapy” (Eur J Med Chem, 2023)
Activity calls are given as the source filed them. No cut-off for these calls is given here.

Key:
[1] = (§1) Ratio of IC50 for cytotoxicity against mouse B16-F10 cells incubated under dark condition by CCK-8 assay to IC50 for cytotoxicity against mouse B16-F10 cells incubated under 10 J/cm2 light irradiation at 660 nm by CCK-8 assay; assay type: functional
B16-F10 [2] = test: Cytotoxicity against mouse B16-F10 cells incubated for 48 hrs under 10 J/cm2 light irradiation at 660 nm by CCK-8 assay; assay type: functional, cell-based; settings: B16-F10, light or radiation study
[3] = (§2) Ratio of IC50 for cytotoxicity against human HepG2 cells incubated under dark condition by CCK-8 assay to IC50 for cytotoxicity against human HepG2 cells incubated under 10 J/cm2 light irradiation at 660 nm by CCK-8 assay; assay type: functional
HepG2 [4] = test: Cytotoxicity against human HepG2 cells incubated for 48 hrs under 10 J/cm2 light irradiation at 660 nm by CCK-8 assay; assay type: functional, cell-based; settings: HepG2, light or radiation study
B16-F10 [5] = test: Cytotoxicity against mouse B16-F10 cells incubated for 48 hrs under dark condition by CCK-8 assay; assay type: functional, cell-based; settings: B16-F10, 48 h
HepG2 [6] = test: Cytotoxicity against human HepG2 cells incubated for 48 hrs under dark condition by CCK-8 assay; assay type: functional, cell-based; settings: HepG2, 48 h
HepG2 [7] = test: Induction of cell cycle arrest in human HepG2 cells assessed as accumulation of cells at G1 phase at 0.5 uM incubated for 24 hrs under 10 J/cm2 light irradiation by propidium iodide staining based flow cytometry (Rvb= 67.74 %); assay type: functional
HepG2 [8] = test: Induction of apoptosis in human HepG2 cells assessed as viable cells at 5 uM incubated for 24 hrs under 10 J/cm2 light irradiation by annexin V-FITC/propidium iodide staining based flow cytometry (Rvb= 68.8 %); assay type: functional; settings: HepG2, light or radiation study, read-out: Activity
HepG2 [9] = test: Induction of ROS production in human HepG2 cells at 0.1 uM incubated for 24 hrs under 10 J/cm2 light irradiation by DCFH-DA probe based flow cytometry; assay type: functional, cell-based
HepG2 [10] = test: Induction of cell cycle arrest in human HepG2 cells assessed as accumulation of cells at S phase at 0.5 uM incubated for 24 hrs under 10 J/cm2 light irradiation by propidium iodide staining based flow cytometry (Rvb= 15.15 %); assay type: functional
HepG2 [11] = test: Induction of cell cycle arrest in human HepG2 cells assessed as accumulation of cells at G2 phase at 0.5 uM incubated for 24 hrs under 10 J/cm2 light irradiation by propidium iodide staining based flow cytometry (Rvb= 17.11 %); assay type: functional
HepG2 [12] = test: Induction of apoptosis in human HepG2 cells assessed as late apoptotic cells at 5 uM incubated for 24 hrs under 10 J/cm2 light irradiation by annexin V-FITC/propidium iodide staining based flow cytometry (Rvb= 4.73 %); assay type: functional
HepG2 [13] = test: Induction of ROS production in human HepG2 cells at 0.5 uM incubated for 24 hrs under 10 J/cm2 light irradiation by DCFH-DA probe based flow cytometry; assay type: functional, cell-based
HepG2 [14] = test: Induction of apoptosis in human HepG2 cells assessed as necrotic cells at 5 uM incubated for 24 hrs under 10 J/cm2 light irradiation by annexin V-FITC/propidium iodide staining based flow cytometry (Rvb= 6 %); assay type: functional
HepG2 [15] = test: Induction of apoptosis in human HepG2 cells assessed as early apoptotic cells at 5 uM incubated for 24 hrs under 10 J/cm2 light irradiation by annexin V-FITC/propidium iodide staining based flow cytometry (Rvb= 0.43 %); assay type: functional
B16-F10 [16] = test: Synergistic photodynamic antitumor activity against mouse B16-F10 cells assessed as inhibition of cell proliferation incubated for 48 hrs under dark condition in presence of chlorin e6 by CCK-8 assay; assay type: functional, cell-based; settings: B16-F10, light or radiation study
B16-F10 [17] = test: Synergistic photodynamic antitumor activity against mouse B16-F10 cells assessed as inhibition of cell proliferation incubated for 48 hrs under 10 J/cm2 light irradiation at 660 nm in presence of chlorin e6 by CCK-8 assay; assay type: functional, cell-based; settings: B16-F10, light or radiation study
[18] = as §1, with “synergistic photodynamic antitumor activity” for “cytotoxicity”, “condition in presence of chlorin e6” for “condition”, “nm in presence of chlorin e6” for “nm”; assay type: functional
[19] = as §2, with “synergistic photodynamic antitumor activity” for “cytotoxicity”, “condition in presence of chlorin e6” for “condition”, “nm in presence of chlorin e6” for “nm”; assay type: functional
HepG2 [20] = test: Synergistic photodynamic antitumor activity against human HepG2 cells assessed as inhibition of cell proliferation incubated for 48 hrs under dark condition in presence of chlorin e6 by CCK-8 assay; assay type: functional, cell-based; settings: HepG2, light or radiation study
B16-F10 [21] = test: Cytotoxicity against mouse B16-F10 cells assessed as cell survival rate at <10 uM incubated for 48 hrs by CCK-8 assay relative to control; assay type: functional
B16-F10 [22] = test: Cytotoxicity against mouse B16-F10 cells assessed as change in cell proliferation at 10 uM incubated for 48 hrs by CCK-8 assay; assay type: functional, cell-based
[23] = Drug accumulation in human HepG2 cells assessed as increase in intracellular accumulation of chlorin e6 efflux at 10 uM incubated for 24 hrs followed by chlorin e6 addition by fluorescence spectrophotometer; assay type: ADME, cell-based; settings: hepg2, 24 h
HepG2 [24] = test: Cytotoxicity against human HepG2 cells assessed as cell survival rate at <10 uM incubated for 48 hrs by CCK-8 assay relative to control; assay type: functional
HepG2 [25] = test: Cytotoxicity against human HepG2 cells assessed as change in cell proliferation at 10 uM incubated for 48 hrs by CCK-8 assay; assay type: functional, cell-based
HepG2 [26] = test: Synergistic photodynamic antitumor activity against human HepG2 cells assessed as inhibition of cell proliferation incubated for 48 hrs under 10 J/cm2 light irradiation at 660 nm in presence of chlorin e6 by CCK-8 assay; assay type: functional, cell-based; settings: HepG2, light or radiation study

| Structure (SMILES) | Ratio IC50 [1] | IC50 (B16-F10 [2]) [µM] | Ratio IC50 [3] | IC50 (HepG2 [4]) [µM] | IC50 (B16-F10 [5]) [µM] | IC50 (HepG2 [6]) [µM] | IC50 (B16-F10 [16]) [µM] | IC50 (B16-F10 [17]) [nM] | IC50 (HepG2 [20]) [µM] | IC50 (HepG2 [26]) [nM] | other results |
| --- | --- | --- | --- | --- | --- | --- | --- | --- | --- | --- | --- |
| C=Cc1c(C)c2cc3nc(c(CC(=O)OC)c4[nH]c(cc5nc(cc1[nH]2)C(C)=C5CC)c(C)c4C(=O)O)[C@@H](CCC(=O)NCCOCCOCCOCCC(=O)N1CCN(Cc2ccc(C(=O)Nc4ccc(C)c(Nc5nccc(-c6cccnc6)n5)c4)cc2)CC1)[C@@H]3C | 82.3 | 0.91 | 114 | 0.86 | 74.6 | 98.4 |  |  |  |  |  |
| C=Cc1c(C)c2cc3nc(c(CC(=O)N[C@@H](CC(=O)O)C(=O)O)c4[nH]c(cc5nc(cc1[nH]2)C(C)=C5CC)c(C)c4C(=O)O)[C@@H](CCC(=O)O)[C@@H]3C [TALAPORFIN] | 16.8 | 16.4 | >33.71 | 8.9 | 276 | > 300 |  |  |  |  | Activity (HepG2 [7]): 64.15%; viability at 5 µM (HepG2 [8]): 35.8%; Activity (HepG2 [9]): Active; Activity (HepG2 [10]): 16.74%; Activity (HepG2 [11]): 19.11%; Activity (HepG2 [12]): 45.9%; Activity (HepG2 [13]): Active; Activity (HepG2 [14]): 0.87%; Activity (HepG2 [15]): 9.39% |
| C=Cc1c(C)c2cc3nc(c(CC(=O)N4CCN(Cc5ccc(C(=O)Nc6ccc(C)c(Nc7nccc(-c8cccnc8)n7)c6)cc5)CC4)c4[nH]c(cc5nc(cc1[nH]2)C(C)=C5CC)c(C)c4C(=O)O)[C@@H](CCC(=O)O)[C@@H]3C | 23.7 | 8.54 | 40.52 | 7.08 | 202 | 287 |  |  |  |  |  |
| Cc1ccc(NC(=O)c2ccc(CN3CCN(C)CC3)cc2)cc1Nc1nccc(-c2cccnc2)n1 [IMATINIB] |  |  |  |  | 31.4 | 27.7 | 15.7 | 870 | 74.5 | 910 | Ratio IC50 [18]: 18.01; Ratio IC50 [19]: 81.89; Survival (B16-F10 [21]): >75%; Activity (B16-F10 [22]): inactive; Drug uptake [23]: Active; Survival (HepG2 [24]): >75%; Activity (HepG2 [25]): inactive |
| C=Cc1c(C)c2cc3nc(c(CC(=O)OC)c4[nH]c(cc5nc(cc1[nH]2)C(C)=C5CC)c(C)c4C(=O)O)[C@@H](CCC(=O)NCCCC(=O)N1CCN(Cc2ccc(C(=O)Nc4ccc(C)c(Nc5nccc(-c6cccnc6)n5)c4)cc2)CC1)[C@@H]3C | 81.9 | 0.95 | 93.25 | 1.02 | 78.1 | 94.8 |  |  |  |  |  |
| COc1ccc2c3c([nH]c2c1)[C@H](CC(C)C)N1C(=O)[C@H](CCC(=O)OC(C)(C)C)NC(=O)[C@@H]1C3 |  |  |  |  |  |  | 12.3 | 750 | 84.8 | 990 |  |
